Measured values taken from ChEMBL document CHEMBL1795228, “Air to lung partition coefficients for volatile organic compounds and blood to lung partition coefficients for volatile organic compounds and drugs” (Eur J Med Chem, 2008).

Key:
[1] = In-vivo plasma to lung partition coefficients of the compound, logP(lung) in rat; type: ADME, cell-free
[2] = In-vitro air to lung partition coefficients of the compound, logK(lung) (human/rat); conditions: octanol/water
[3] = In-vitro blood to lung partition coefficients of the compound, logP(lung) (human/rat)
[4] = In-vitro air to blood partition coefficients of the compound, logK(blood) (human/rat); conditions: octanol/water
[5] = In-vivo blood to lung partition coefficients of the compound, logP(lung) in rat; type: ADME

| Structure (SMILES) | logP(lung) [1] | logK(lung) [2] | logP(lung) [3] | logK(blood) [4] | logP(lung) [5] |
| --- | --- | --- | --- | --- | --- |
| CCCCCCC1(CC)C(=O)NC(=O)NC1=O | 0.08 |  |  |  |  |
| ClCCl [METHYLENE CHLORIDE] |  | 0.76 | -0.36 | 1.12 |  |
| OC(CCN1CCCCC1)(c1ccccc1)C1CCCCC1 (stereo not drawn) [TRIHEXYPHENIDYL] |  |  |  |  | 1.87 |
| CCC(C)(C)C |  | -0.22 | 0.37 | -0.59 |  |
| CCC(C)=O [BUTANONE] |  | 2.01 | -0.23 | 2.24 |  |
| [C-]#[O+] [CARBON MONOXIDE] |  | -1.69 | -0.02 | -1.67 |  |
| CCC(C)CC |  | -0.05 | 0.32 | -0.37 |  |
| CN1C(=O)NC(=O)C(C)(C2=CCCCC2)C1=O (stereo not drawn) [HEXOBARBITAL] | 0.45 |  |  |  |  |
| C=CC=C [BUTADIENE] |  | -0.32 | -0.41 | 0.09 |  |
| O=C1Nc2ccc(Cl)cc2C(c2ccccc2Cl)=NC1O (stereo not drawn) [LORAZEPAM] | 0.44 |  |  |  |  |
| O=C(CCCN1CCC(O)(c2ccc(Cl)cc2)CC1)c1ccc(F)cc1 [HALOPERIDOL] |  |  |  |  | 1.73 |
| ClC=C(Cl)Cl [TRICHLOROETHYLENE] |  | 1.15 | 0.01 | 1.14 |  |
| CCCCCCCCC1(CC)C(=O)NC(=O)NC1=O | 0.49 |  |  |  |  |
| COC(F)(F)C(Cl)Cl [METHOXYFLURANE] |  | 1.2 | -0.08 | 1.28 |  |
| C1CC1 [CYCLOPROPANE] |  | -0.51 | -0.3 | -0.21 |  |
| CCCCC [PENTANE] |  | -0.3 | -0.01 | -0.29 |  |
| FC(F)(F)c1ccc(Cl)cc1 |  | 1.63 | 0.2 | 1.43 |  |
| CC1(C)[C@@H](O)CC[C@]2(C)[C@H]3C(=O)C=C4[C@@H]5C[C@@](C)(C(=O)O)CC[C@]5(C)CC[C@@]4(C)[C@]3(C)CC[C@@H]12 [ENOXOLONE] | -0.66 |  |  |  |  |
| CCc1ccc(C(=O)C(C)CN2CCCC2)cc1 (stereo not drawn) [INAPERISONE] | 1.52 |  |  |  |  |
| O=C1NC(=O)C(c2ccccc2)(c2ccccc2)N1 [PHENYTOIN] | -0.1 |  |  |  |  |
| COC(=O)C(c1ccccc1)C1CCCCN1 (stereo not drawn) [METHYLPHENIDATE] | 1.54 |  |  |  |  |
| FCOC(C(F)(F)F)C(F)(F)F [SEVOFLURANE] |  | 0.11 | 0.31 | -0.2 |  |
| ClC(Cl)=C(Cl)Cl [TETRACHLOROETHYLENE] |  | 1.86 | 0.67 | 1.19 |  |

| Structure (SMILES) | logP(lung) [1] | logK(lung) [2] | logP(lung) [3] | logK(blood) [4] | logP(lung) [5] |
| --- | --- | --- | --- | --- | --- |
| C=C |  | -0.25 | 0.28 | -0.53 |  |
| CC [ETHANE] |  | -1.28 | -0.26 | -1.02 |  |
| O=C1CN=C(c2ccccc2)c2cc([N+](=O)[O-])ccc2N1 [NITRAZEPAM] |  |  |  |  | 0.26 |
| OCCOCCN1CCN(C(c2ccccc2)c2ccc(Cl)cc2)CC1 (stereo not drawn) [HYDROXYZINE] |  |  |  |  | 1.06 |
| C1CCCCC1 [CYCLOHEXANE] |  | 0.43 | 0.26 | 0.17 |  |
| Cc1nc(Nc2ccc(F)cc2)nc(N2CCc3ccccc3C2C)c1C.Cl (stereo not drawn) [REVAPRAZAN HYDROCHLORIDE] | 1.34 |  |  |  |  |
| CC(Cl)(Cl)Cl [TRICHLOROETHANE] |  | 0.67 | 0.04 | 0.63 |  |
| C#C [ETHYNE] |  | -0.06 | 0 | -0.06 |  |
| O=C(O)c1ccc(-c2ccccc2)cc1 | -0.55 |  |  |  |  |
| CCCC(C)C1(CC)C(=O)NC(=S)NC1=O (stereo not drawn) [THIOPENTAL] | 0.08 |  |  |  |  |
| CN1CCC[C@H]1c1cccnc1 [NICOTINE] | 0.32 |  |  |  |  |
| CN(C/C=C/C#CC(C)(C)C)Cc1cccc2ccccc12 [TERBINAFINE] | 0.41 |  |  |  |  |
| CCCCCCC [HEPTANE] |  | 0.4 | -0.1 | 0.5 |  |
| CC(C)=CCN1CC[C@]2(C)c3cc(O)ccc3C[C@H]1[C@H]2C [(+)-PENTAZOCINE] | 1.43 |  |  |  |  |
| CN1C(=O)CC[C@H]1c1cccnc1 [COTININE] | -0.18 |  |  |  |  |
| CC(C)CO [ISOBUTANOL] |  | 2.6 | -0.32 | 2.92 |  |
| CN1CCN(CCCN2c3ccccc3Sc3ccc(C(F)(F)F)cc32)CC1 [TRIFLUOPERAZINE] |  |  |  |  | 1.33 |
| Cc1ccccc1C [O-XYLENE] |  | 1.94 | 0.52 | 1.42 |  |
| C1CO1 [OXIRANE] |  | 1.79 | -0.01 | 1.8 |  |
| COC(=O)[C@H]1[C@@H](OC(=O)c2ccccc2)C[C@@H]2CC[C@H]1N2C [COCAINE] | 1.06 |  |  |  |  |
| FC(F)(F)CCl |  | 0.34 | 0.2 | 0.14 |  |
| c1ccccc1 [BENZENE] |  | 1.08 |  | 1.05 |  |
| CC1(C)S[C@@H]2[C@H](NC(=O)COc3ccccc3)C(=O)N2[C@H]1C(=O)O [PENICILLIN V] | -0.8 |  |  |  |  |

| Structure (SMILES) | logP(lung) [1] | logK(lung) [2] | logP(lung) [3] | logK(blood) [4] | logP(lung) [5] |
| --- | --- | --- | --- | --- | --- |
| CCOc1ccccc1C(N)=O [ETHENZAMIDE] | -0.03 |  |  |  |  |
| CCCC1(CC)C(=O)NC(=O)NC1=O | 0.16 |  |  |  |  |
| CSc1ccc2c(c1)N(CCC1CCCCN1C)c1ccccc1S2 (stereo not drawn) [THIORIDAZINE] | 1.13 |  |  |  |  |
| O=c1[nH]c(=O)n(C2CCCO2)cc1F (stereo not drawn) [TEGAFUR] | -0.59 |  |  |  |  |
| Cc1onc(-c2c(Cl)cccc2Cl)c1C(=O)N[C@@H]1C(=O)N2[C@@H]1SC(C)(C)[C@@H]2C(=O)O [DICLOXACILLIN] | -0.92 |  |  |  |  |
| CC1CCCC1 [METHYLCYCLOPENTANE] |  | 0.23 | 0.3 | -0.07 |  |
| CCOCC [ETHER] |  | 1.14 | 0.03 | 1.11 |  |
| CCCC(C)C |  | -0.1 | 0.29 | -0.39 |  |
| FC(F)(F)C(Cl)Br (stereo not drawn) [HALOTHANE] |  | 0.46 | -0.11 | 0.57 |  |
| FC(F)OC(Cl)C(F)(F)F (stereo not drawn) [ISOFLURANE] |  | 0.2 | 0 | 0.2 |  |
| CCCCCC [HEXANE] |  | 0 | -0.21 | 0.21 |  |
| CC(C)(C)NC[C@H](O)COc1nsnc1N1CCOCC1 [TIMOLOL] | 1.43 |  |  |  |  |
| CCCC1O[C@@H]2C[C@H]3[C@@H]4CCC5=CC(=O)C=C[C@]5(C)[C@H]4[C@@H](O)C[C@]3(C)[C@]2(C(=O)CO)O1 (stereo partly drawn) [BUDESONIDE] | 0.94 |  |  |  |  |
| FS(F)(F)(F)(F)F [SULFUR HEXAFLUORIDE] |  | -2.14 | 0.03 | -2.17 |  |
| CO [METHYL ALCOHOL] |  | 3.24 | -0.17 | 3.41 |  |
| Nc1cc(Cl)c(S(N)(=O)=O)cc1-c1nnn[nH]1 | 0.6 |  |  |  |  |
| O=C(O)c1ccccc1O [SALICYLIC ACID] | -0.72 |  |  |  |  |
| CCCCCCCC1(CC)C(=O)NC(=O)NC1=O | 0.12 |  |  |  |  |
| CN1C(C(=O)Nc2ccccn2)=C(O)c2sccc2S1(=O)=O [TENOXICAM] | -0.49 |  |  |  |  |
| COn1cc(C(=O)O)c(=O)c2cc3c(cc21)OCO3 [MILOXACIN] | -0.29 |  |  |  |  |
| C=CC(=C)Cl [CHLOROPRENE] |  | 1.12 |  |  |  |
| COc1cccc2c1C(=O)c1c(O)c3c(c(O)c1C2=O)C[C@@](O)(C(=O)CO)C[C@@H]3O[C@H]1C[C@H](N)[C@H](O)[C@H](C)O1 [DOXORUBICIN] | 0.53 |  |  |  |  |
| O=O [OXYGEN] |  | -1.62 | -0.04 | -1.58 |  |

| Structure (SMILES) | logP(lung) [1] | logK(lung) [2] | logP(lung) [3] | logK(blood) [4] | logP(lung) [5] |
| --- | --- | --- | --- | --- | --- |
| C=CC [PROPENE] |  | -0.24 | -0.03 | -0.21 |  |
| CCC1(CC)C(=O)NC(=O)NC1=O [BARBITAL] | 0 |  |  |  |  |
| CCC1(c2ccccc2)C(=O)NC(=O)NC1=O [PHENOBARBITAL] | -0.08 |  |  |  |  |
| CC(C)=O [ACETONE] |  | 2.2 | -0.16 | 2.36 |  |
| CC(C)NCC(O)COc1ccc(COCCOC(C)C)cc1 (stereo not drawn) [BISOPROLOL] | 1.62 |  |  |  |  |
| CCCC(CCC)C(=O)O [VALPROIC ACID] | -0.38 |  |  |  |  |
| [N-]=[N+]=O [NITROUS OXIDE] |  | -0.37 | 0 | -0.34 |  |
| Cc1cccc(OCC(O)CNC(C)C)c1 (stereo not drawn) [TOLIPROLOL] | 0.89 |  |  |  |  |
| CCC1(C)C(=O)NC(=O)NC1=O | -0.21 |  |  |  |  |
| Cn1c(=O)c2[nH]cnc2n(C)c1=O.O [THEOPHYLLINE] | -0.15 |  |  |  |  |
| CCCCC1(CC)C(=O)NC(=O)NC1=O [BUTETHAL] | 0.18 |  |  |  |  |
| CCn1cc(C(=O)O)c(=O)c2ccc(C)nc21 [NALIDIXIC ACID] | -0.48 |  |  |  |  |
| ClC(Cl)Cl [CHLOROFORM] |  | 1.12 | -0.03 | 1.15 |  |
| CC(C)NCC(O)COc1cccc2[nH]ccc12 (stereo not drawn) [PINDOLOL] | 1.01 |  |  |  |  |
| CCCCCC1(CC)C(=O)NC(=O)NC1=O | 0.22 |  |  |  |  |
| c1cc2ccc3cccc4ccc(c1)c2c34 [PYRENE] | 0.35 |  |  |  |  |
| c1ccc(C2(N3CCCCC3)CCCCC2)cc1 [PHENCYCLIDINE] | 1.61 |  |  |  |  |
| [He] [HELIUM] |  | -1.98 | 0.02 | -2 |  |
| FC(F)OC(F)(F)C(F)Cl (stereo not drawn) |  | 0.56 | 0.21 | 0.35 |  |
| Cc1nnc(SCC2=C(C(=O)O)N3C(=O)[C@@H](NC(=O)Cn4cnnn4)[C@H]3SC2)s1 [CEFAZOLIN] | -0.78 |  |  |  |  |
| OC(CCN1CCCCC1)(c1ccccc1)C1CC2C=CC1C2 (stereo not drawn) [BIPERIDEN] | 1.79 |  |  |  |  |
| CC(C)NCC(O)COc1ccc(CCOCC2CC2)cc1 (stereo not drawn) [BETAXOLOL] | 2.29 |  |  |  |  |
